{"source": "paper PMC9969023", "about": "(European Journal of Nuclear Medicine and Molecular Imaging, 2023)", "data": [{"substance": "^18F-FDG", "values": [{"measurement": "SUVmax of paratracheal enlarged lymph nodes", "setting": "patient 2, PET/MR", "value": 21.50}, {"measurement": "SUVmax of thickened esophagus", "setting": "patient 2, PET/MR, 3.7 MBq/kg, 50 to 70 min P.I.", "value": 28.24}, {"measurement": "SUVmax of lung nodule", "setting": "patient 2, PET/MR, nodule in left lung lower lobe", "value": 1.60}, {"measurement": "uptake in peritoneal nodules", "setting": "patient 3, peritoneal metastases, result in words", "value": "mild increased uptake"}]}]}
